Data taken from patent US12077503B2, “Substituted cyclic amides and their use as herbicides” (FMC CORPORATION, priority 2015, dated 2024).

What was measured:
Type in all cases: in vivo
[1] = tested on: barnyardgrass (Echinochloa crus-galli); experiment: Test G Pre-Emergence Protocol; details: Echinochloa crus-galli, pre-emergence, 312 h, evaluated after 13 days; for pest or weed control at 15.625 g/ha: 15.625 g ai/ha; for pest or weed control at 15.625 g/ha / pest or weed control at 250 g/ha: read-out: Barnyardgrass damage rating (100=total damage to plant; 0=no damage to plant); for pest or weed control at 62.5 g/ha: 62.5 g ai/ha, 100=total damage to plant, 0=no damage to plant, read-out: Barnyardgrass damage rating; for pest or weed control at 250 g/ha: 250 g ai/ha
In short: (§1)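 Seeds were sown in standard soil and kept one day in a glasshouse (24/16° C day/night, 14 h light, 65% humidity), then sprayed with compound in acetone/water (50:50) containing 0.5% Tween 20 at 15.625, 62.5 or 250 g/ha. Damage was scored after 13 days (0 = none, 100 = total).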

[2] = tested on: velvetleaf (Abutilon theophrasti); experiment: Test G Pre-Emergence Protocol; details: Abutilon theophrasti, pre-emergence, 312 h, evaluated after 13 days; for pest or weed control at 15.625 g/ha: 15.625 g ai/ha; for pest or weed control at 15.625 g/ha / pest or weed control at 250 g/ha: read-out: Velvetleaf damage rating (100=total damage to plant; 0=no damage to plant); for pest or weed control at 62.5 g/ha: 62.5 g ai/ha, 100=total damage to plant, 0=no damage to plant, read-out: Velvetleaf damage rating; for pest or weed control at 250 g/ha: 250 g ai/ha
In short: as §1

[3] = tested on: ivy-leaved morning glory (Ipomoea hederacea); experiment: Test G Pre-Emergence Protocol; details: Ipomoea, pre-emergence, 312 h, evaluated after 13 days; for pest or weed control at 15.625 g/ha: 15.625 g ai/ha; for pest or weed control at 15.625 g/ha / pest or weed control at 250 g/ha: read-out: Morningglory, Ivy-leaved damage rating (100=total damage to plant; 0=no damage to plant); for pest or weed control at 62.5 g/ha: 62.5 g ai/ha, 100=total damage to plant, 0=no damage to plant, read-out: Morningglory, Ivy-leaved damage rating; for pest or weed control at 250 g/ha: 250 g ai/ha
In short: as §1

[4] = tested on: giant foxtail (Setaria faberi); experiment: Test G Pre-Emergence Protocol; details: Setaria faberi, pre-emergence, 312 h, evaluated after 13 days; for pest or weed control at 15.625 g/ha: 15.625 g ai/ha; for pest or weed control at 15.625 g/ha / pest or weed control at 250 g/ha: read-out: Foxtail, Giant damage rating (100=total damage to plant; 0=no damage to plant); for pest or weed control at 62.5 g/ha: 62.5 g ai/ha, 100=total damage to plant, 0=no damage to plant, read-out: Foxtail, Giant damage rating; for pest or weed control at 250 g/ha: 250 g ai/ha
In short: as §1

corn (Zea mays) [5] = experiment: Test G Pre-Emergence Protocol; details: Zea mays, pre-emergence, 312 h, evaluated after 13 days; for plant injury at 15.625 g/ha: 15.625 g ai/ha; for plant injury at 15.625 g/ha / plant injury at 250 g/ha: read-out: Corn damage rating (100=total damage to plant; 0=no damage to plant); for plant injury at 62.5 g/ha: 62.5 g ai/ha, 100=total damage to plant, 0=no damage to plant, read-out: Corn damage rating; for plant injury at 250 g/ha: 250 g ai/ha
In short: as §1

[6] = tested on: redroot pigweed (Amaranthus retroflexus); experiment: Test G Pre-Emergence Protocol; details: Amaranthus retroflexus, pre-emergence, 312 h, evaluated after 13 days; for pest or weed control at 15.625 g/ha: 15.625 g ai/ha; for pest or weed control at 15.625 g/ha / pest or weed control at 250 g/ha: read-out: Pigweed, Redroot damage rating (100=total damage to plant; 0=no damage to plant); for pest or weed control at 62.5 g/ha: 62.5 g ai/ha, 100=total damage to plant, 0=no damage to plant, read-out: Pigweed, Redroot damage rating; for pest or weed control at 250 g/ha: 250 g ai/ha
In short: as §1

[7] = tested on: barnyardgrass (Echinochloa crus-galli); experiment: Test G Post-Emergence Protocol; details: Echinochloa crus-galli, post-emergence, 312 h, read-out: Barnyardgrass damage rating; for pest or weed control at 15.625 g/ha: 15.625 g ai/ha, evaluated after 13 days (100=total damage to plant; 0=no damage to plant); for pest or weed control at 62.5 g/ha: 62.5 g ai/ha; for pest or weed control at 62.5 g/ha / pest or weed control at 250 g/ha: evaluated after 13 days, 100=total damage to plant, 0=no damage to plant; for pest or weed control at 250 g/ha: 250 g ai/ha
In short: (§2)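 A glasshouse post-emergence test: 8-day-old plants sprayed at 15.625, 62.5 or 250 g/ha, then grown at 24/16 °C day/night with 14 h light and 65% humidity. Damage rated 13 days later, 0–100.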

[8] = tested on: velvetleaf (Abutilon theophrasti); experiment: Test G Post-Emergence Protocol; details: Abutilon theophrasti, post-emergence, 312 h, read-out: Velvetleaf damage rating; for pest or weed control at 15.625 g/ha: 15.625 g ai/ha, evaluated after 13 days (100=total damage to plant; 0=no damage to plant); for pest or weed control at 62.5 g/ha: 62.5 g ai/ha; for pest or weed control at 62.5 g/ha / pest or weed control at 250 g/ha: evaluated after 13 days, 100=total damage to plant, 0=no damage to plant; for pest or weed control at 250 g/ha: 250 g ai/ha
In short: as §2

[9] = tested on: ivy-leaved morning glory (Ipomoea hederacea); experiment: Test G Post-Emergence Protocol; details: Ipomoea, post-emergence, 312 h, read-out: Morningglory, Ivy-leaved damage rating; for pest or weed control at 15.625 g/ha: 15.625 g ai/ha, evaluated after 13 days (100=total damage to plant; 0=no damage to plant); for pest or weed control at 62.5 g/ha: 62.5 g ai/ha; for pest or weed control at 62.5 g/ha / pest or weed control at 250 g/ha: evaluated after 13 days, 100=total damage to plant, 0=no damage to plant; for pest or weed control at 250 g/ha: 250 g ai/ha
In short: as §2

[10] = tested on: giant foxtail (Setaria faberi); experiment: Test G Post-Emergence Protocol; details: Setaria faberi, post-emergence, 312 h, read-out: Foxtail, Giant damage rating; for pest or weed control at 15.625 g/ha: 15.625 g ai/ha, evaluated after 13 days (100=total damage to plant; 0=no damage to plant); for pest or weed control at 62.5 g/ha: 62.5 g ai/ha; for pest or weed control at 62.5 g/ha / pest or weed control at 250 g/ha: evaluated after 13 days, 100=total damage to plant, 0=no damage to plant; for pest or weed control at 250 g/ha: 250 g ai/ha
In short: as §2

corn (Zea mays) [11] = experiment: Test G Post-Emergence Protocol; details: Zea mays, post-emergence, 312 h, read-out: Corn damage rating; for plant injury at 15.625 g/ha: 15.625 g ai/ha, evaluated after 13 days (100=total damage to plant; 0=no damage to plant); for plant injury at 62.5 g/ha: 62.5 g ai/ha; for plant injury at 62.5 g/ha / plant injury at 250 g/ha: evaluated after 13 days, 100=total damage to plant, 0=no damage to plant; for plant injury at 250 g/ha: 250 g ai/ha
In short: as §2

[12] = tested on: redroot pigweed (Amaranthus retroflexus); experiment: Test G Post-Emergence Protocol; details: Amaranthus retroflexus, post-emergence, 312 h, read-out: Pigweed, Redroot damage rating; for pest or weed control at 15.625 g/ha: 15.625 g ai/ha, evaluated after 13 days (100=total damage to plant; 0=no damage to plant); for pest or weed control at 62.5 g/ha: 62.5 g ai/ha; for pest or weed control at 62.5 g/ha / pest or weed control at 250 g/ha: evaluated after 13 days, 100=total damage to plant, 0=no damage to plant; for pest or weed control at 250 g/ha: 250 g ai/ha
In short: as §2

| Structure (SMILES) | pest or weed control at 15.625 g/ha [1] [%] | pest or weed control at 62.5 g/ha [1] [%] | pest or weed control at 250 g/ha [1] [%] | pest or weed control at 15.625 g/ha [2] [%] | pest or weed control at 62.5 g/ha [2] [%] | pest or weed control at 250 g/ha [2] [%] | pest or weed control at 15.625 g/ha [3] [%] | pest or weed control at 62.5 g/ha [3] [%] | pest or weed control at 250 g/ha [3] [%] | pest or weed control at 15.625 g/ha [4] [%] | pest or weed control at 62.5 g/ha [4] [%] | pest or weed control at 250 g/ha [4] [%] | plant injury at 15.625 g/ha (corn (Zea mays) [5]) [%] | plant injury at 62.5 g/ha (corn (Zea mays) [5]) [%] | plant injury at 250 g/ha (corn (Zea mays) [5]) [%] | pest or weed control at 15.625 g/ha [6] [%] | pest or weed control at 62.5 g/ha [6] [%] | pest or weed control at 250 g/ha [6] [%] | pest or weed control at 15.625 g/ha [7] [%] | pest or weed control at 62.5 g/ha [7] [%] | other results |
| --- | --- | --- | --- | --- | --- | --- | --- | --- | --- | --- | --- | --- | --- | --- | --- | --- | --- | --- | --- | --- | --- |
| CN1C[C@H](c2cccc(Cl)c2)[C@@H](C(=O)Nc2cnccc2C(F)(F)F)C1=O (racemic) [Compound 1772] | 0 | 10 | 80 | 0 | 0 | 40 | 0 | 0 | 60 | 30 | 80 | 90 | 0 | 0 | 60 | 0 | 0 | 10 | 0 | 0 | pest or weed control at 250 g/ha [7]: 30%; pest or weed control at 15.625 g/ha [8]: 0%; pest or weed control at 62.5 g/ha [8]: 0%; pest or weed control at 250 g/ha [8]: 30%; pest or weed control at 15.625 g/ha [9]: 0%; pest or weed control at 62.5 g/ha [9]: 30%; pest or weed control at 250 g/ha [9]: 50%; pest or weed control at 15.625 g/ha [10]: 10%; pest or weed control at 62.5 g/ha [10]: 60%; pest or weed control at 250 g/ha [10]: 80%; plant injury at 15.625 g/ha (corn (Zea mays) [11]): 0%; plant injury at 62.5 g/ha (corn (Zea mays) [11]): 0%; plant injury at 250 g/ha (corn (Zea mays) [11]): 60%; pest or weed control at 15.625 g/ha [12]: 0%; pest or weed control at 62.5 g/ha [12]: 0%; pest or weed control at 250 g/ha [12]: 10% |
| CN1C[C@H](c2cccc(C(C)(C)C#N)c2)[C@@H](C(=O)Nc2ccccc2S(C)(=O)=O)C1=O (racemic) [Compound 1784] | 0 | 10 | 10 | 0 | 0 | 0 | 0 | 0 | 10 | 10 | 0 | 40 | 0 | 0 | 0 | 0 | 0 | 0 | 0 | 0 | pest or weed control at 250 g/ha [7]: 0%; pest or weed control at 15.625 g/ha [8]: 0%; pest or weed control at 62.5 g/ha [8]: 0%; pest or weed control at 250 g/ha [8]: 0%; pest or weed control at 15.625 g/ha [9]: 0%; pest or weed control at 62.5 g/ha [9]: 0%; pest or weed control at 250 g/ha [9]: 0%; pest or weed control at 15.625 g/ha [10]: 0%; pest or weed control at 62.5 g/ha [10]: 0%; pest or weed control at 250 g/ha [10]: 0%; plant injury at 15.625 g/ha (corn (Zea mays) [11]): 0%; plant injury at 62.5 g/ha (corn (Zea mays) [11]): 0%; plant injury at 250 g/ha (corn (Zea mays) [11]): 0%; pest or weed control at 15.625 g/ha [12]: 0%; pest or weed control at 62.5 g/ha [12]: 0%; pest or weed control at 250 g/ha [12]: 0% |
| CN1C[C@H](c2cccc(C(F)(F)F)c2)[C@@H](C(=O)Nc2ccc(O)cc2F)C1=O (racemic) [Compound 1785] | 0 | 0 | 0 | 0 | 0 | 0 | 0 | 0 | 0 | 0 | 0 | 10 | 0 | 0 | 0 | 0 | 0 | 20 | 0 | 0 | pest or weed control at 250 g/ha [7]: 0%; pest or weed control at 15.625 g/ha [8]: 0%; pest or weed control at 62.5 g/ha [8]: 0%; pest or weed control at 250 g/ha [8]: 0%; pest or weed control at 15.625 g/ha [9]: 0%; pest or weed control at 62.5 g/ha [9]: 0%; pest or weed control at 250 g/ha [9]: 0%; pest or weed control at 15.625 g/ha [10]: 0%; pest or weed control at 62.5 g/ha [10]: 0%; plant injury at 15.625 g/ha (corn (Zea mays) [11]): 0%; plant injury at 62.5 g/ha (corn (Zea mays) [11]): 0%; plant injury at 250 g/ha (corn (Zea mays) [11]): 0%; pest or weed control at 15.625 g/ha [12]: 0%; pest or weed control at 62.5 g/ha [12]: 0%; pest or weed control at 250 g/ha [12]: 0% |
